Measurements published in ChEMBL document CHEMBL6092162, “Identification of novel and potent triazoles targeting CYP51 for antifungal: Design, synthesis, and biological study” (Eur J Med Chem, 2024).
Values after ≈ are worked out from the molar mass of the structure shown. Active and inactive are the calls of the source. No cut-off for these calls is given here.

Key:
[1] = tested on: Candida albicans; assay: Antifungal activity against Candida albicans SC5314 assessed as inhibition of fungal growth by CLSI M27-A3 guidelines based method; format: functional
[2] = tested on: Candida albicans; assay: Antifungal activity against Candida albicans GIM 2.194 assessed as inhibition of fungal growth by CLSI M27-A3 guidelines based method; format: functional
[3] = tested on: Candida tropicalis; assay: Antifungal activity against Candida tropicalis GIM 2.183 assessed as inhibition of fungal growth by CLSI M27-A3 guidelines based method; format: functional
[4] = tested on: Candida parapsilosis; assay: Antifungal activity against Candida parapsilosis GIM 2.190 assessed as inhibition of fungal growth by CLSI M27-A3 guidelines based method; format: functional; details: Lodderomyces parapsilosis
[5] = tested on: Nakaseomyces glabratus; assay: Antifungal activity against Candida glabrata assessed as inhibition of fungal growth by CLSI M27-A3 guidelines based method; format: functional
[6] = tested on: Pichia kudriavzevii; assay: Antifungal activity against Candida krusei GIM 2.1 assessed as inhibition of fungal growth by CLSI M27-A3 guidelines based method; format: functional
[7] = tested on: Candida albicans; assay: Antifungal activity against fluconazole and iodiconazole resistant Candida albicans clinical isolate 17# assessed as inhibition of fungal growth by CLSI M27-A3 guidelines based method; format: functional
[8] = tested on: Candida albicans; assay: Antifungal activity against fluconazole-resistant Candida albicans CaR assessed as inhibition of fungal growth by CLSI M27-A3 guidelines based method; format: functional
[9] = tested on: Candida albicans; assay: Antifungal activity against fluconazole-resistant Candida albicans clinical isolate 901 assessed as inhibition of fungal growth by CLSI M27-A3 guidelines based method; format: functional
[10] = tested on: Candida albicans; assay: Antifungal activity against fluconazole-resistant Candida albicans clinical isolate 904 assessed as inhibition of fungal growth by CLSI M27-A3 guidelines based method; format: functional
[11] = tested on: Candida albicans; assay: Antifungal activity against fluconazole-resistant Candida albicans clinical isolate 632 assessed as inhibition of fungal growth by CLSI M27-A3 guidelines based method; format: functional
[12] = tested on: Candida albicans; assay: Antifungal activity against fluconazole-resistant Candida albicans clinical isolate 100 assessed as inhibition of fungal growth by CLSI M27-A3 guidelines based method; format: functional
[13] = tested on: Candida albicans; assay: Antifungal activity against fluconazole-resistant Candida albicans clinical isolate 103 assessed as inhibition of fungal growth by CLSI M27-A3 guidelines based method; format: functional
[14] = tested on: Candida albicans; assay: Antifungal activity against fluconazole-resistant Candida albicans clinical isolate 311 assessed as inhibition of fungal growth by CLSI M27-A3 guidelines based method; format: functional
[15] = tested on: Candida albicans; assay: Fungicidal activity against Candida albicans SC5314 incubated for 48 hrs by SDA plate based method; format: functional
[16] = tested on: Candida albicans; assay: Selectivity ratio of MFC for fungicidal activity against Candida albicans SC5314 to MIC80 for antifungal activity against Candida albicans SC5314; format: functional
[17] = tested on: Candida albicans; assay: Fungicidal activity against fluconazole and iodiconazole resistant Candida albicans clinical isolate 17# incubated for 48 hrs by SDA plate based method; format: functional
[18] = tested on: Candida albicans; assay: Selectivity ratio of MFC for fungicidal activity against fluconazole and iodiconazole resistant Candida albicans clinical isolate 17# to MIC80 for antifungal activity against fluconazole and iodiconazole resistant Candida albicans clinical isolate 17#; format: functional
[19] = tested on: Candida albicans; assay: Effect on sterol composition in Candida albicans SC5314 assessed as ergosterol content at 0.0625 microg/ml measured after 16 hrs by GC-MS analysis (reference value: 96.96 %); format: functional; details: dose 0.0625 µg/ml
[20] = tested on: Candida albicans; assay: Effect on sterol composition in Candida albicans SC5314 assessed as 14alpha-demethyllanosterol content at 0.0625 microg/ml measured after 16 hrs by GC-MS analysis (reference value: 1.98 %); format: functional; details: dose 0.0625 µg/ml
[21] = tested on: Candida albicans; assay: Effect on sterol composition in Candida albicans SC5314 assessed as obtusifoliol content at 0.0625 microg/ml measured after 16 hrs by GC-MS analysis relative to control; format: functional; details: dose 0.0625 µg/ml
[22] = tested on: Candida albicans; assay: Effect on sterol composition in Candida albicans SC5314 assessed as lanosterol content at 0.0625 microg/ml measured after 16 hrs by GC-MS analysis relative to control; format: functional; details: dose 0.0625 µg/ml
[23] = tested on: Candida albicans; assay: Effect on sterol composition in Candida albicans SC5314 assessed as eburicol content at 0.0625 microg/ml measured after 16 hrs by GC-MS analysis relative to control; format: functional; details: dose 0.0625 µg/ml
[24] = tested on: Candida albicans; assay: Effect on sterol composition in Candida albicans SC5314 assessed as other sterols content at 0.0625 microg/ml measured after 16 hrs by GC-MS analysis (reference value: 1.06 %); format: functional; details: dose 0.0625 µg/ml
[25] = tested on: Candida albicans; assay: Antibiofilm activity against fluconazole-resistant Candida albicans CPCC400616 assessed as inhibition of metabolic activity of biofilm measured after 6 hrs by XTT reduction assay; format: functional
[26] = tested on: Candida albicans; assay: Antibiofilm activity against fluconazole-resistant Candida albicans CPCC400616 assessed as inhibition of metabolic activity of biofilm measured after 24 hrs by XTT reduction assay; format: functional
[27] = tested on: Candida albicans; assay: Antibiofilm activity against fluconazole-resistant Candida albicans CPCC400616 assessed as inhibition of metabolic activity of biofilm measured after 48 hrs by XTT reduction assay; format: functional
[28] = Cytotoxicity against HEK293T cells assessed as inhibition of cell growth incubated for 72 hrs by MTT assay; format: toxicity, cell-based, HEK-293T; details: human
[29] = Cytotoxicity against human NCI-H460 cells assessed as inhibition of cell growth incubated for 72 hrs by MTT assay; format: toxicity, cell-based
[30] = Cytotoxicity against human OVCAR-3 cells assessed as inhibition of cell growth incubated for 72 hrs by MTT assay; format: toxicity, cell-based
[31] = Cytotoxicity against HUVEC cells assessed as inhibition of cell growth incubated for 72 hrs by MTT assay; format: toxicity, cell-based; details: human
[32] = Selectivity index, ratio of IC50 for HEK293T cells to MIC80 for Candida albicans SC5314; format: toxicity, cell-based; details: human, HEK293T cells versus Candida albicans SC5314; read-out: Selectivity Index
[33] = Half-life in Sprague-Dawley rat at 10 mg/kg, po by LC-MS/MS analysis; format: ADME, organism-based; details: in vivo
[34] = Tmax in Sprague-Dawley rat at 10 mg/kg, po by LC-MS/MS analysis; format: ADME, organism-based; details: in vivo
[35] = Cmax in Sprague-Dawley rat at 10 mg/kg, po by LC-MS/MS analysis; format: ADME, organism-based; details: in vivo
[36] = AUC (0 to t) in Sprague-Dawley rat at 10 mg/kg, po by LC-MS/MS analysis; format: ADME, organism-based; details: in vivo
[37] = MRT (0 to t) in Sprague-Dawley rat at 10 mg/kg, po by LC-MS/MS analysis; format: ADME, organism-based; details: in vivo
[38] = Oral bioavailability in Sprague-Dawley rat at 10 mg/kg by LC-MS/MS analysis; format: ADME, organism-based; details: in vivo
[39] = Half-life in Sprague-Dawley rat at 3 mg/kg, iv by LC-MS/MS analysis; format: ADME, organism-based; details: in vivo
[40] = Tmax in Sprague-Dawley rat at 3 mg/kg, iv by LC-MS/MS analysis; format: ADME, organism-based; details: in vivo
[41] = Cmax in Sprague-Dawley rat at 3 mg/kg, iv by LC-MS/MS analysis; format: ADME, organism-based; details: in vivo
[42] = AUC (0 to t) in Sprague-Dawley rat at 3 mg/kg, iv by LC-MS/MS analysis; format: ADME, organism-based; details: in vivo
[43] = MRT(0 to t) in Sprague-Dawley rat at 3 mg/kg, iv by LC-MS/MS analysis; format: ADME, organism-based; details: in vivo
[44] = Apparent volume of distribution in Sprague-Dawley rat at 3 mg/kg, iv by LC-MS/MS analysis; format: ADME, organism-based; details: in vivo
[45] = tested on: Candida albicans; assay: Fungicidal activity fluconazole and iodiconazole resistant Candida albicans clinical isolate 17# assessed as reduction in viable colony count at 0.5 microg/ml measured within 24 hrs by time-kill kinetics assay; format: functional, organism-based; details: dose 0.5 µg/ml
[46] = tested on: Candida albicans; assay: Fungicidal activity fluconazole and iodiconazole resistant Candida albicans clinical isolate 17# assessed as reduction in viable colony count measured for 24 hrs by time-kill kinetics assay; format: functional, organism-based
[47] = tested on: Candida albicans; assay: Antibiofilm activity against Candida albicans CPCC400616 assessed as inhibition of morphological transformation by measuring disappearance of mycelium at 2 microg/ml incubated for 4 hrs by microscopic photograph analysis; format: functional, organism-based; details: dose 2.0 µg/ml

Compound: CN(Cc1ccc(N2CCN(Cc3ccc(F)cc3Br)CC2)cc1)CC(O)(Cn1cncn1)c1ccc(F)cc1F (configuration not stated)
- MIC80 [1]: 0.006 µg/mL (≈ 0.00953 µM)
- MIC80 [2]: 0.013 µg/mL (≈ 0.0207 µM)
- MIC80 [3]: 0.006 µg/mL (≈ 0.00953 µM)
- MIC80 [4]: 0.006 µg/mL (≈ 0.00953 µM)
- MIC80 [5]: 0.1 µg/mL (≈ 0.159 µM)
- MIC80 [6]: 0.1 µg/mL (≈ 0.159 µM)
- MIC80 [7]: 0.063 µg/mL (≈ 0.1 µM)
- MIC80 [8]: 0.063 µg/mL (≈ 0.1 µM)
- MIC80 [9]: > 64 µg/mL
- MIC80 [10]: 8 µg/mL (≈ 12.7 µM)
- MIC80 [11]: 8 µg/mL (≈ 12.7 µM)
- MIC80 [12]: 2 µg/mL (≈ 3.18 µM)
- MIC80 [13]: 4 µg/mL (≈ 6.35 µM)
- MIC80 [14]: 8 µg/mL (≈ 12.7 µM)
- MFC [15]: 0.031 µg/mL (≈ 0.0492 µM)
- Selectivity ratio [16]: 5
- MFC [17]: 0.063 µg/mL (≈ 0.1 µM)
- Selectivity ratio [18]: 1
- Activity [19]: 1.83%
- Activity [20]: 2.78%
- Activity [21]: 14.81%
- Activity [22]: 10.55%
- Activity [23]: 65.56%
- Activity [24]: 4.47%
- MIC50 [25]: 0.5 µg/mL (≈ 0.794 µM)
- MIC50 [26]: 2 µg/mL (≈ 3.18 µM)
- MIC50 [27]: 8 µg/mL (≈ 12.7 µM)
- IC50 at 72 h [28]: 4.99 µM
- IC50 at 72 h [29]: 5.22 µM
- IC50 at 72 h [30]: 7.72 µM
- IC50 at 72 h [31]: > 10 µM
- Selectivity ratio [32]: 798
- half-life [33]: 1.12 h
- Tmax [34]: 1 h
- Cmax [35]: 10.6 ng/mL
- AUC(0-t) [36]: 14.4 ng·h/mL
- MRT last [37]: 1.12 h
- bioavailability [38]: 1.66%
- t1/2 [39]: 0.37 h
- Tmax [40]: 4.98 min
- Cmax [41]: 535 ng/mL
- AUCt [42]: 324 ng·h/mL
- MRT last [43]: 0.478 h
- Vz [44]: 4.89 L/kg
- Activity [45]: Active
- Activity [46]: Dose-dependent-effect; Much More Effective Than Iodiconazole
- Activity [47]: Active
